Activity calls are given as the source filed them.
Experiments:
[1] = target: Acetylcholinesterase (Electrophorus electricus) (UniProt O42275); assay: Inhibition of electric eel AChE at 20 uM using acetylthiocholine iodide as substrate preincubated with enzyme for 20 mins followed by substrate addition by Ellman's method relative to control
[2] = target: Cholinesterase (Equus caballus) (UniProt P81908); assay: Inhibition of equine serum BuChE at 20 uM using butyrylthiocholine iodide as substrate preincubated with enzyme for 20 mins followed by substrate addition by Ellman's method relative to control
[3] = target: Cholinesterase (Equus caballus, UniProt P81908); assay: Inhibition of equine serum BuChE using butyrylthiocholine iodide as substrate preincubated with enzyme for 20 mins followed by substrate addition by Ellman's method
[4] = Octanol-PBS buffer partition coefficient, log P of the compound incubated for 24 hrs measured at pH 7.4 by shake-flask method; type: physicochemical

Chain of Acetylcholinesterase (Electrophorus electricus) (O42275 24-633 limits assumed): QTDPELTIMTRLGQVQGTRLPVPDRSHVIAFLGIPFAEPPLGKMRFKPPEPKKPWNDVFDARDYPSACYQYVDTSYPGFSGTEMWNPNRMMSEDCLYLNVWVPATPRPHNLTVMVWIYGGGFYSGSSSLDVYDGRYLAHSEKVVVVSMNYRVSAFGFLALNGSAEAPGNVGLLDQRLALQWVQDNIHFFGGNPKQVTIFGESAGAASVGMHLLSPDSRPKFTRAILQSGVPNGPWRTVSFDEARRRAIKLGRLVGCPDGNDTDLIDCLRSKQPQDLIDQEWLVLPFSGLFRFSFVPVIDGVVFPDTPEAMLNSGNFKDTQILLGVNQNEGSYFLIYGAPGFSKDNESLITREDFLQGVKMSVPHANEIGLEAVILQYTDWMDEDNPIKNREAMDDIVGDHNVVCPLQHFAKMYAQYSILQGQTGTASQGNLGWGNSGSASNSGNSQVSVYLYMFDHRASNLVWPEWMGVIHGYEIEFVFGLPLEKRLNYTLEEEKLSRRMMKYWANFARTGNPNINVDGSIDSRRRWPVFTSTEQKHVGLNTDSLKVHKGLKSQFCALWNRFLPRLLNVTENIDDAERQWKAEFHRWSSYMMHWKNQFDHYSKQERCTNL
Chain of Cholinesterase (Equus caballus) (P81908 whole entry): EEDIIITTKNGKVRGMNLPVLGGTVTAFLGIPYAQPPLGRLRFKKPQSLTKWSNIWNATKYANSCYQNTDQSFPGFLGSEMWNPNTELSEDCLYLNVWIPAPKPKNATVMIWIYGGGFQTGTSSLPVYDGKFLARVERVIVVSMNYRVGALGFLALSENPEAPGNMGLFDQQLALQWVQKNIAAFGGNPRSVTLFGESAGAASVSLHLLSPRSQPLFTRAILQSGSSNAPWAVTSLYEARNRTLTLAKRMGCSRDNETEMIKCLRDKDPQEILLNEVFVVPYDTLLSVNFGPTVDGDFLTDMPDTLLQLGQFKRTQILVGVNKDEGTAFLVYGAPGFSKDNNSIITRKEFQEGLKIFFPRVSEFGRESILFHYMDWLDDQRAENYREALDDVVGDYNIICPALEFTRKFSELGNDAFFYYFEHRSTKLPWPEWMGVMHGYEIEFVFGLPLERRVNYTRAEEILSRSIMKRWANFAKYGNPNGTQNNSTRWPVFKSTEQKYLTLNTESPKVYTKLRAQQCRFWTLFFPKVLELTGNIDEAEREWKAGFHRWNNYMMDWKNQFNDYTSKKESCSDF
Chain of Cholinesterase (P81908 whole entry): as above

Cc1nn(-c2ccccc2)c2c1C(c1ccc(C#N)cc1)CS(=O)(=O)O2 (centres undefined)
inhibition [1]: inactive
inhibition [2]: 15%

Cc1cccc(C2CS(=O)(=O)Oc3c2c(C)nn3-c2ccccc2)c1 (centres undefined)
IC50 [3]: 17.7 µM
inhibition [1]: inactive

Cc1nn(-c2ccccc2)c2c1C(c1ccc3ccccc3c1)CS(=O)(=O)O2 (centres undefined)
inhibition [1]: inactive
inhibition [2]: inactive

COc1ccc(-c2nn(-c3ccc(Cl)cc3)c3c2C(c2ccc(C#N)cc2)CS(=O)(=O)O3)cc1 (centres undefined)
IC50 [3]: 21 µM
inhibition [1]: inactive

Cc1ccc(C2CS(=O)(=O)Oc3c2c(C)nn3-c2ccccc2)cc1 (centres undefined)
inhibition [1]: inactive
inhibition [2]: inactive

Cc1nn(-c2ccccc2)c2c1C(c1cccs1)CS(=O)(=O)O2 (centres undefined)
inhibition [1]: inactive
inhibition [2]: 42%

Cc1nn(-c2ccccc2)c2c1C(/C=C/c1ccc(C(F)(F)F)cc1)CS(=O)(=O)O2 (centres undefined)
inhibition [1]: 19%
inhibition [2]: inactive

Cc1nn(-c2ccccc2)c2c1C(c1cccc(F)c1)CS(=O)(=O)O2 (centres undefined)
IC50 [3]: 9.82 µM
inhibition [1]: inactive

Cc1cc(C2CS(=O)(=O)Oc3c2c(C)nn3-c2ccccc2F)ccc1Br (centres undefined)
IC50 [3]: 3.83 µM
logD at 24 h [4]: 2.26
inhibition [1]: inactive

COc1ccc(-c2nn(-c3ccc(Cl)cc3)c3c2C(c2ccc(Br)c(C)c2)CS(=O)(=O)O3)cc1 (centres undefined)
IC50 [3]: 13.3 µM
inhibition [1]: inactive

COc1ccc(-c2nn(-c3ccc(Cl)cc3)c3c2C(c2ccc(F)cc2)CS(=O)(=O)O3)cc1 (centres undefined)
inhibition [1]: inactive
inhibition [2]: 7%

O=S1(=O)CC(c2ccc(F)cc2)c2c(C3CC3)nn(-c3ccccc3F)c2O1 (centres undefined)
IC50 [3]: 7.76 µM
logD at 24 h [4]: 1.76
inhibition [1]: inactive

COc1cccc(C2CS(=O)(=O)Oc3c2c(C)nn3-c2cccc(Cl)c2)c1 (centres undefined)
inhibition [1]: inactive
inhibition [2]: inactive

Cc1nn(-c2ccccc2F)c2c1CCS(=O)(=O)O2
IC50 [3]: 1.8 µM
logD at 24 h [4]: 1.86
inhibition [1]: inactive

Cc1nn(-c2ccccc2)c2c1C(c1cc3ccccc3s1)CS(=O)(=O)O2 (centres undefined)
inhibition [1]: 14%
inhibition [2]: 33%

O=S1(=O)CC(c2cccc(C(F)(F)F)c2)c2c(C3CC3)nn(-c3ccccc3Cl)c2O1 (centres undefined)
inhibition [1]: inactive
inhibition [2]: inactive

COc1ccc(-c2nn(-c3ccccc3Cl)c3c2C(c2ccc(Br)c(C)c2)CS(=O)(=O)O3)cc1 (centres undefined)
inhibition [1]: inactive
inhibition [2]: 35%

Cc1ccc(-n2nc(C)c3c2OS(=O)(=O)CC3c2ccccc2)cc1 (centres undefined)
inhibition [1]: inactive
inhibition [2]: inactive

Cc1cc(C2CS(=O)(=O)Oc3c2c(C2CC2)nn3-c2cccc(F)c2)ccc1Br (centres undefined)
IC50 [3]: 11.5 µM
inhibition [1]: inactive

COc1ccc(-c2nn(-c3ccccc3F)c3c2C(c2ccc(Br)c(C)c2)CS(=O)(=O)O3)cc1 (centres undefined)
IC50 [3]: 4.33 µM
logD at 24 h [4]: 2.91
inhibition [1]: inactive

Cc1nn(-c2ccccc2)c2c1C(/C=C/c1ccc(Br)cc1)CS(=O)(=O)O2 (centres undefined)
inhibition [1]: inactive
inhibition [2]: inactive

Cc1nn(-c2ccc(Cl)cc2)c2c1C(c1ccc(F)cc1)CS(=O)(=O)O2 (centres undefined)
inhibition [1]: inactive
inhibition [2]: inactive

COc1ccc(-n2nc(C)c3c2OS(=O)(=O)CC3c2ccc(F)cc2)cc1 (centres undefined)
inhibition [1]: inactive
inhibition [2]: 15%

Cc1nn(-c2cccc(F)c2)c2c1C(c1cccc(F)c1)CS(=O)(=O)O2 (centres undefined)
inhibition [1]: inactive
inhibition [2]: inactive

O=S1(=O)CC(c2cccc(F)c2)c2c(C3CC3)nn(-c3ccccc3F)c2O1 (centres undefined)
IC50 [3]: 4.01 µM
logD at 24 h [4]: 2.86
inhibition [1]: inactive

Cc1nn(-c2ccc(Cl)cc2)c2c1C(c1cccc(F)c1)CS(=O)(=O)O2 (centres undefined)
inhibition [1]: inactive
inhibition [2]: inactive

Cc1cc(C2CS(=O)(=O)Oc3c2c(C2CC2)nn3-c2ccccc2F)ccc1Br (centres undefined)
IC50 [3]: 5.71 µM
logD at 24 h [4]: 2.72
inhibition [1]: inactive

CC(C)C(=O)C1=C(C(C)C)OS(=O)(=O)CC1c1ccc([N+](=O)[O-])cc1 (centres undefined)
inhibition [1]: inactive
inhibition [2]: inactive

COc1ccc(-n2nc(C)c3c2OS(=O)(=O)CC3c2ccc(Br)c(C)c2)cc1 (centres undefined)
inhibition [1]: inactive
inhibition [2]: inactive

Cc1cc(C2CS(=O)(=O)Oc3c2c(C2CC2)nn3-c2cccc(Cl)c2)ccc1Br (centres undefined)
inhibition [1]: inactive
inhibition [2]: 34%

Cc1nn(-c2ccccc2)c2c1C(c1ccsc1)CS(=O)(=O)O2 (centres undefined)
IC50 [3]: 10.1 µM
inhibition [1]: inactive

Cc1cccc(-n2nc(C)c3c2OS(=O)(=O)CC3c2ccccc2)c1 (centres undefined)
inhibition [1]: inactive
inhibition [2]: inactive

N#Cc1ccc(C2CS(=O)(=O)Oc3c2c(C2CC2)nn3-c2cccc(Cl)c2)cc1 (centres undefined)
inhibition [1]: inactive
inhibition [2]: inactive

Cc1nn(-c2ccccc2)c2c1C(c1cccc3c1sc1ccccc13)CS(=O)(=O)O2 (centres undefined)
inhibition [1]: inactive
inhibition [2]: inactive

COc1ccc(C2CS(=O)(=O)Oc3c2c(C)nn3-c2ccccc2)cc1 (centres undefined)
IC50 [3]: 9.35 µM
inhibition [1]: inactive

Cc1nn(-c2ccccc2)c2c1C(c1ccc(-c3ccccc3)cc1)CS(=O)(=O)O2 (centres undefined)
inhibition [1]: 12%
inhibition [2]: inactive

Cc1nn(-c2ccccc2)c2c1C(c1cccc(C3CS(=O)(=O)Oc4c3c(C)nn4-c3ccccc3)c1)CS(=O)(=O)O2 (centres undefined)
inhibition [1]: inactive
inhibition [2]: inactive

Cc1nn(-c2ccccc2)c2c1CCS(=O)(=O)O2
inhibition [1]: inactive
inhibition [2]: inactive

O=C1CCCC2=C1C(c1ccc([N+](=O)[O-])cc1)CS(=O)(=O)O2 (centres undefined)
inhibition [1]: inactive
inhibition [2]: 25%

Cc1nn(-c2ccccc2)c2c1C(c1ccc([N+](=O)[O-])cc1)CS(=O)(=O)O2 (centres undefined)
inhibition [1]: inactive
inhibition [2]: inactive

Cc1nn(-c2ccc(Br)cc2)c2c1C(c1ccccc1)CS(=O)(=O)O2 (centres undefined)
inhibition [1]: inactive
inhibition [2]: inactive

CC1(C)CC(=O)C2=C(C1)OS(=O)(=O)CC2c1ccc([N+](=O)[O-])cc1 (centres undefined)
inhibition [1]: inactive
inhibition [2]: inactive

Cc1nn(-c2ccccc2)c2c1C(c1cnn(-c3ccccc3)c1)CS(=O)(=O)O2 (centres undefined)
inhibition [1]: inactive
inhibition [2]: 14%

CC(=O)c1cccc(C2CS(=O)(=O)Oc3c2c(C)nn3-c2ccccc2)c1 (centres undefined)
inhibition [1]: inactive
inhibition [2]: 24%

Cc1nn(-c2ccccc2)c2c1C(c1cccc(C(F)(F)F)c1)CS(=O)(=O)O2 (centres undefined)
IC50 [3]: 16.4 µM
inhibition [1]: inactive

Cc1nn(-c2ccccc2)c2c1C(/C=C/c1ccc(C(C)(C)C)cc1)CS(=O)(=O)O2 (centres undefined)
inhibition [1]: 11%
inhibition [2]: inactive

Cc1cc(C2CS(=O)(=O)Oc3c2c(C)nn3-c2cccc(Cl)c2)ccc1Br (centres undefined)
inhibition [1]: inactive
inhibition [2]: inactive

O=C1CCC2=C1C(c1ccc([N+](=O)[O-])cc1)CS(=O)(=O)O2 (centres undefined)
inhibition [1]: inactive
inhibition [2]: inactive

Cc1ccc(-n2nc(C)c3c2OS(=O)(=O)CC3c2ccccc2)cc1C (centres undefined)
inhibition [1]: inactive
inhibition [2]: inactive

COc1ccc(-c2nn(-c3ccc(Cl)cc3)c3c2C(c2cccc(OC)c2)CS(=O)(=O)O3)cc1 (centres undefined)
inhibition [1]: inactive
inhibition [2]: 42%

CC(=O)C1=C(C)OS(=O)(=O)CC1c1ccc([N+](=O)[O-])cc1 (centres undefined)
inhibition [1]: inactive
inhibition [2]: inactive

N#Cc1ccc(C2CS(=O)(=O)Oc3c2c(C2CC2)nn3-c2ccccc2Cl)cc1 (centres undefined)
inhibition [1]: inactive
inhibition [2]: 7%

Cc1cc(C2CS(=O)(=O)Oc3c2c(C)nn3-c2ccc(Cl)cc2)ccc1Br (centres undefined)
inhibition [1]: inactive
inhibition [2]: 34%

COc1ccc(-c2nn(-c3ccccc3F)c3c2C(c2ccc(F)cc2)CS(=O)(=O)O3)cc1 (centres undefined)
inhibition [1]: inactive
inhibition [2]: inactive

Cc1nn(-c2ccccc2)c2c1C(c1cc3ccccc3o1)CS(=O)(=O)O2 (centres undefined)
IC50 [3]: 2.6 µM
inhibition [1]: inactive

Cc1ccc(C2CS(=O)(=O)Oc3c2c(C)nn3-c2ccccc2)cc1Br (centres undefined)
IC50 [3]: 18.3 µM
inhibition [1]: inactive

Cc1nn(-c2ccccc2)c2c1C(c1ccc(F)cc1)CS(=O)(=O)O2 (centres undefined)
inhibition [1]: inactive
inhibition [2]: 37%

COc1cccc(C2CS(=O)(=O)Oc3c2c(C)nn3-c2ccccc2)c1 (centres undefined)
IC50 [3]: 11 µM
inhibition [1]: inactive

Cc1nn(-c2cccc(Cl)c2)c2c1C(c1ccc(F)cc1)CS(=O)(=O)O2 (centres undefined)
inhibition [1]: inactive
inhibition [2]: inactive

Cc1nn(-c2ccc(F)cc2)c2c1C(c1ccccc1)CS(=O)(=O)O2 (centres undefined)
inhibition [1]: inactive
inhibition [2]: inactive

CCOC(=O)c1ccc(C2CS(=O)(=O)Oc3c2c(C)nn3-c2ccccc2)cc1 (centres undefined)
inhibition [1]: inactive
inhibition [2]: inactive

Cc1nn(-c2cccc(F)c2)c2c1C(c1ccc(F)cc1)CS(=O)(=O)O2 (centres undefined)
inhibition [1]: inactive
inhibition [2]: inactive

Cc1nn(-c2ccccc2)c2c1C(c1cccc([N+](=O)[O-])c1)CS(=O)(=O)O2 (centres undefined)
inhibition [1]: inactive
inhibition [2]: 23%

Cc1cccc(/C=C/C2CS(=O)(=O)Oc3c2c(C)nn3-c2ccccc2)c1 (centres undefined)
IC50 [3]: 10.1 µM
inhibition [1]: 13%

COc1cccc(C2CS(=O)(=O)Oc3c2c(C2CC2)nn3-c2cccc(F)c2)c1 (centres undefined)
IC50 [3]: 14.3 µM
inhibition [1]: inactive

Cc1nn(-c2cccc(Cl)c2)c2c1C(c1cccc(F)c1)CS(=O)(=O)O2 (centres undefined)
inhibition [1]: inactive
inhibition [2]: inactive

COc1ccccc1C1CS(=O)(=O)Oc2c1c(C)nn2-c1ccccc1 (centres undefined)
inhibition [1]: inactive
inhibition [2]: 31%

COc1ccc(-c2nn(-c3ccccc3Cl)c3c2C(c2ccc(F)cc2)CS(=O)(=O)O3)cc1 (centres undefined)
inhibition [1]: inactive
inhibition [2]: inactive

Cc1cc(C)cc(C2CS(=O)(=O)Oc3c2c(C)nn3-c2ccccc2)c1 (centres undefined)
inhibition [1]: inactive
inhibition [2]: inactive
